Tests used:
MKK7 [1] = biological target: T1, MKK7 (Homo sapiens, UniProt O14733, S271D/T275D); assay: ADP-Glo assay with kinase-inhibitor pre-incubation step (phosphorylation of cov-JNK3 substrate by MKK7); format: biochemical; conditions: for luminescence intensity: raw data; for Normalized Intensity (%): normalized to Control DMSO only and Control No kinase
T1 construct: Recombinant MKK7 (full-length, S287D/T291D); made in house
T1 sequence (O14733 1-435 isoform O14733-3 S287D/T291D): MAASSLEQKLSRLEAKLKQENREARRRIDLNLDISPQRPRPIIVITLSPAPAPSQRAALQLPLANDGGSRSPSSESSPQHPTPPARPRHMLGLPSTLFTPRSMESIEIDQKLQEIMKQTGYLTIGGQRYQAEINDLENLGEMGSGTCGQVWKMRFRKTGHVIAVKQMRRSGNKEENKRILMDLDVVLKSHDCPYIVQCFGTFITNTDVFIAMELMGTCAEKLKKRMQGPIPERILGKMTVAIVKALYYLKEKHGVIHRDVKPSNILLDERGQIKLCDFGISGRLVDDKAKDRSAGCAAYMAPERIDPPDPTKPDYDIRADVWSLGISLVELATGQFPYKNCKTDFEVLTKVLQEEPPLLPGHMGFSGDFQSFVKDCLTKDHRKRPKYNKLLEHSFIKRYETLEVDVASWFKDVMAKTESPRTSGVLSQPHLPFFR
Method: The protocol described here uses Echo® 550 liquid handler. However, when performing with manual pipetting, adjusting pipetting volume of each component of the kinase reaction is required with an example provided in the above table. We had performed the following protocol using both pipetting methods, and observed similar assay quality with an example shown in Figure 3.
This part of the protocol describes a variation of the ADP-Glo^TM assay that includes a pre-incubation step between the tested inhibitors and MKK7 prior to an addition of ATP (Figure 4). […] Thus, apparent greater inhibitory potencies would be expected. The protocol below describes an experiment testing three inhibitors using fixed concentrations of 25 nM for MKK7 kinase, 30 μM for cov-JNK3 substrate and 100 μM for ATP with the layout of the assay plate shown in Figure 5. • 1. Thaw ADP-Glo^TM assay reagents. Place 10 mM ultra-pure ATP immediately on ice, while the other reagents can be kept at 22°C–25°C. • 2. Quick thaw MKK7 kinase and 10× cov-JNK3 substrate and spin both using benchtop centrifuge at high speed at 4°C for 10 min. Transfer clear supernatant into a new tube and keep on ice. • 3. Prepare 75 μL of 10× MKK7 kinase solution by diluting MKK7 to 250 nM in protein storage buffer. Keep the solution on ice until further use. • 4. Prepare the following mixtures and keep them on ice until further use. • a. Mixture 1: one part of 10× MKK7 kinase solution, one part of 10× cov-JNK3 substrate and eight part of the reaction buffer. For example, 500 μL of Mixture 1 contains 50 μL of 10× MKK7 kinase solution, 50 μL of 10× cov-JNK3 substrate and […] of the reaction buffer. This 500-μL Mixture 1 is adequate for approximately 100 reactions and will be used for the reactions containing inhibitors and the “Control DMSO only” wells (see Figure 5). • b. Mixture 2: one part of protein storage buffer, one part of 10× cov-JNK3 substrate and eight part of the reaction buffer. For example, 50 μL of Mixture 2 is made from 5 μL of protein storage buffer, 5 μL of 10× cov-JNK3 substrate and 45 μL of the reaction buffer. This 50-μL Mixture 2 is adequate for 10 reactions and is for the “Control No kinase” wells (see Figure 5). • c. Mixture 3: one part of 10× MKK7 kinase solution, one part of protein storage buffer and eight part of the reaction buffer. For example, 50 μL of Mixture 3 is made from 5 μL of 10× MKK7 kinase solution, 5 μL of protein storage buffer and 45 μL of reaction buffer. This 50-μL Mixture 3 is adequate for 10 reactions and is for the “Control No substrate” wells (see Figure 5) • 5. Prepare a serial dilution of inhibitors in a 384-well assay plate using the “Dose response” setting in Echo®550 acoustic liquid handler according to the manufacture’s manual. For this experiment, the dilution series of three inhibitors at 11 concentrations is prepared by the following steps (see also Figure 5 and Data S1 for an example input for Echo® dose response pipetting): • a. Prepare 5 mM inhibitor stock solutions in DMSO and transfer 25 μL of each into three different wells of an Echo® source plate. Fill the 4th well with 30 μL DMSO. • b. Use the “Dose response” program in Echo® 550 liquid handler with a DMSO backfill option to aliquot the correct volumes of the inhibitors and DMSO into each reaction wells in the assay plate according to the plate layout in Figure 5. Note that two intermediate compound dilutions will be created by the ECHO® dose response program (see Data S1 for an example input for Echo® dose response pipetting). 50 nL of DMSO should be transferred to each control well to ensure homogeneous assay conditions. The total transfer volume of 50 nL of either inhibitor alone, inhibitor plus DMSO or DMSO alone is fixed to ensure constant 1% final DMSO concentration (see Data S1 for an example input for Echo® dose response pipetting). • 6. […]

MKK7 [2] = biological target: T1, MKK7; parameters: method as in Schröder et al., 2020; conditions: with vs without kinase-inhibitor pre-incubation; Figure 6; ref Schröder et al., 2020; cited from earlier work
[3] = [Inhibitor] 1.49E-05 M (log -4.83)
[4] = [Inhibitor] 1.65E-08 M (log -7.78)
[5] = [Inhibitor] 1.65E-09 M (log -8.78)
[6] = [Inhibitor] 2.43E-10 M (log -9.62)
[7] = [Inhibitor] 2.91E-07 M (log -6.54)
[8] = [Inhibitor] 4.95E-05 M (log -4.31)
[9] = [Inhibitor] 4.95E-06 M (log -5.31)
[10] = [Inhibitor] 4.95E-09 M (log -8.31)
[11] = [Inhibitor] 8.08E-10 M (log -9.09)
[12] = [Inhibitor] 8.08E-11 M (log -10.09)
[13] = [Inhibitor] 9.71E-07 M (log -6.01)
[14] = [Inhibitor] 9.71E-08 M (log -7.01)

| luminescence intensity (MKK7 [1]; [3]) | luminescence intensity (MKK7 [1]; [4]) | luminescence intensity (MKK7 [1]; [5]) | luminescence intensity (MKK7 [1]; [6]) | luminescence intensity (MKK7 [1]; [7]) | luminescence intensity (MKK7 [1]; [8]) | luminescence intensity (MKK7 [1]; [9]) | luminescence intensity (MKK7 [1]; [10]) | luminescence intensity (MKK7 [1]; [11]) | luminescence intensity (MKK7 [1]; [12]) | luminescence intensity (MKK7 [1]; [13]) | luminescence intensity (MKK7 [1]; [14]) | Normalized Intensity (%) (MKK7 [1]; log[Inhibitor] -4.31) | Normalized Intensity (%) (MKK7 [1]; log[Inhibitor] -4.83) | Normalized Intensity (%) (MKK7 [1]; log[Inhibitor] -5.31) | Normalized Intensity (%) (MKK7 [1]; log[Inhibitor] -6.01) | Normalized Intensity (%) (MKK7 [1]; log[Inhibitor] -6.54) | Normalized Intensity (%) (MKK7 [1]; log[Inhibitor] -7.01) | Normalized Intensity (%) (MKK7 [1]; log[Inhibitor] -7.78) | Normalized Intensity (%) (MKK7 [1]; log[Inhibitor] -8.31) | SMILES | other results |
| --- | --- | --- | --- | --- | --- | --- | --- | --- | --- | --- | --- | --- | --- | --- | --- | --- | --- | --- | --- | --- | --- |
| 18884 | 157972 | 195602 | 176476 | 49318 | 52382 | 64212 | 138435 | 152383 | 159956 | 22472 | 121319 | 17.05% | -1.74% | 23.69% | 0.27% | 15.33% | 55.73% | 76.30% | 65.34% | C=CC(=O)N1CCC[C@@H](n2nc(-c3ccc(Oc4ccccc4)cc3)c3c(N)ncnc32)C1 [Ibrutinib] | Normalized Intensity (%) (MKK7 [1]; log[Inhibitor] -8.78): 97.41%; Normalized Intensity (%) (MKK7 [1]; log[Inhibitor] -9.09): 73.16%; Normalized Intensity (%) (MKK7 [1]; log[Inhibitor] -9.62): 86.68%; Normalized Intensity (%) (MKK7 [1]; log[Inhibitor] -10.09): 77.41% |
| 50306 | 167511 | 188762 | 186492 | 53403 | 62181 | 22921 | 186941 | 193825 | 208349 | 43374 | 94669 | 22.55% | 15.89% | 0.52% | 12.00% | 17.63% | 40.78% | 81.65% | 92.55% | CC(=O)c1cnc2ccc(-c3cc(Cl)c(O)c(Cl)c3)nc2c1N[C@H]1CC[C@H](CN(C)C)CC1 [OTSSP167] | Normalized Intensity (%) (MKK7 [1]; log[Inhibitor] -8.78): 93.57%; Normalized Intensity (%) (MKK7 [1]; log[Inhibitor] -9.09): 96.42%; Normalized Intensity (%) (MKK7 [1]; log[Inhibitor] -9.62): 92.30%; Normalized Intensity (%) (MKK7 [1]; log[Inhibitor] -10.09): 104.56%; shift of inhibitory potencies (IC50) between the two assay variants (MKK7 [2]): less pronounced |
